Reference: patent publication US20080028486A1, “Aluminium Tolerant Barley” (COMMONWEALTH SCIENTIFIC AND INDUSTRIAL RESEARCH ORGANISATION, priority 2004, published 2008)

How the values were obtained:
[1] = tested on: root apices of transgenic barley expressing ALMT1; assay: K+ efflux from excised root apices of transgenic barley line 5; type: cell-based, Hordeum vulgare; conditions: line 5 excised apices, 50 μM Al, mean ±SE, n=4
Protocol: Al-activated malate efflux from root apices of transgenic barley expressing ALMT1 was accompanied by the efflux of K^+. Net K^+ effluxes from excised apices of line 5 were calculated by subtracting corresponding values obtained for the vector only control line resulting in an efflux of 0.4±0.3 nmoles K^+/h/apex in the absence of Al and an efflux of 5.2±1.0 nmoles K^+/h/apex in the presence of 50 μM Al (means ±SE; n=4).

[2] = tested on: control barley plants (wild type and vector only, cv Golden Promise); assay: Al tolerance assay: root elongation in hydroponic culture, control plants; type: in vivo, Hordeum vulgare
Protocol: (§1) Plants in hydroponic culture were assessed for Al tolerance using a hydroponic solution described as follows, supplemented with a range of AlCl3 concentrations. The hydroponic solution was made with distilled or deionised water containing 500 μM KNO3, 500 μM CaCl2, 500 μM NH4NO3, 150 μM MgSO4, 100 μM KH2PO4, 2 μM Fe:EDTA, 11 μM H3BO3, 2 μM MnCl2, 0.35 μM ZnCl2 and 0.2 μM CuCl2 adjusted to pH 5.5. The Al screening solution was the same solution as above except it contained 10 μM KH2PO4 instead of 100 μM, 2 μM FeCl3 instead of Fe:EDTA and was adjusted to pH 4.3 instead of 5.5, and was supplemented with AlCl3 at the stated concentration. The plants were grown using these solutions at a temperature of 18-25° C., usually at 20° C.
(§2) Al tolerance was assessed by determining root elongation of plants grown in hydroponic culture in the continual presence of added Al. The three barley T0 lines that were transformed with ALMT1 and expressing the transgene in the roots were tested in a range of Al levels. […] The ALMT1 gene therefore provided a dramatic enhancement of Al tolerance on the barley plants, to a level that has not been seen previously.

[3] = tested on: transgenic barley T0 lines 4, 5 and 6 expressing ALMT1; assay: Al tolerance assay: root elongation in hydroponic culture, ALMT1 transgenic barley; type: in vivo, Hordeum vulgare
Protocol: as §1, §2

[4] = tested on: root apices of transgenic barley expressing ALMT1; assay: Malate efflux from excised root apices of transgenic barley expressing ALMT1; type: cell-based, Hordeum vulgare; conditions: for activation of malate efflux: 50 μM La or Er in basal solution
Protocol: FIG. 4—Properties of malate efflux from root apices of transgenic barley expressing ALMT1. • (A) Effect of Al concentration on malate efflux (nmoles/h/apex). Excised root apices from ALMT1 line 5 (solid circles) were exposed to Al treatments from 0 to 50 μM in basal solution for 1 h. Error bars show ±standard errors of the means (n=3). The solid squares show efflux from root apices of the control line transformed with the empty vector. • (B) Effects of niflumic acid (nif; 0 to 100 μM), La (50 μM), Er (50 μM) and basal solution (0.2 mM CaCl2 pH 4.3) on malate efflux from root apices of line 5. Excised root apices from line 5 were exposed to the various treatments in basal solution for 1 h. Error bars show ±standard errors of the means (n=3).
Malate efflux from root segments was assayed using a modification of methods described by Ryan et al. (1995a). Unless stated otherwise, 4 root apices 3 mm long were incubated with shaking in 1 ml of 0.2 mM CaCl2 (pH 4.3) for approximately 1 h. The apices were then rinsed with the CaCl2 solution three times and replaced with 1 ml of the same solution (control) or 1 ml of treatment solution (0.2 mM CaCl2 with added treatment at pH 4.3). After an incubation that typically lasted for 1 h, the solution was removed, dried and the residue re-suspended in 200 μl of buffer used for the spectrographic assay of malate (0.25 M glycine, 0.20 M hydrazine and 2.7 mM NAD adjusted to pH 9). A subsample (100 μl) was transferred to a micro-cuvette and the increase in absorbance at 340 nm measured 6 min after addition of 1 μl of malate dehydrogenase (5 mg/ml) was used to calculate the amount of malate by comparison to a standard curve.

SMILES: [Cl][Al]([Cl])[Cl] [AlCl3, aluminium chloride]
- net K+ efflux (vector only control values subtracted) [1]: 5.2±1.0 nmoles K+/h/apex
- inhibition of root growth ([2]; 2 μM AlCl3): 50%
- inhibition of root growth ([2]; 6 μM AlCl3): 85-90%
- inhibition of root growth ([3]; ALMT1 line 5, hydroponic culture, 20M AlCl3 as printed): did not show significant inhibition of root growth
- inhibition of root growth ([3]; ALMT1 transgenic plants, hydroponic culture, 2, 6 or 12 μM AlCl3): did not exhibit any significant inhibition of root growth
- rate of malate efflux from root apices ([4]; Al-activated efflux, transgenic barley): approx. 1 nmole/apex/h
- added Al concentration up to which malate efflux increases before starting to level off ([4]; line 5 root apices, Al 0 to 50 μM in basal solution (0.2 mM CaCl2 pH 4.3), 1 h): about 25 μM

SMILES: [La] [Lanthanum]
- activation of malate efflux ([4]; line 5 root apices, 1 h): ineffective in activating malate efflux

SMILES: [Er] [erbium]
- activation of malate efflux ([4]; line 5 root apices, 1 h): capable of eliciting malate efflux, albeit at a lower level than observed for Al

SMILES: O=C(O)c1cccnc1Nc1cccc(C(F)(F)F)c1 [niflumic acid]
- effect on malate efflux ([4]; line 5 root apices, niflumic acid 0 to 100 μM, basal solution, 1 h): inhibited
